# Assay results: patent US10829778B2, “Plants having increased tolerance to herbicides” (BASF SE, priority 2013, dated 2020)
# How the values were obtained:
# [1] = target: T1, Arabidopsis HPPD (SEQ ID NO:53) (Arabidopsis thaliana, UniProt P93836); experiment: HPPD activity assay (HGA by HPLC), wildtype enzyme; type: biochemical
# T1 construct: His6 (N); made in house; host or cells: E. coli BL21 (DE3)
# T1 sequence (P93836 1-445): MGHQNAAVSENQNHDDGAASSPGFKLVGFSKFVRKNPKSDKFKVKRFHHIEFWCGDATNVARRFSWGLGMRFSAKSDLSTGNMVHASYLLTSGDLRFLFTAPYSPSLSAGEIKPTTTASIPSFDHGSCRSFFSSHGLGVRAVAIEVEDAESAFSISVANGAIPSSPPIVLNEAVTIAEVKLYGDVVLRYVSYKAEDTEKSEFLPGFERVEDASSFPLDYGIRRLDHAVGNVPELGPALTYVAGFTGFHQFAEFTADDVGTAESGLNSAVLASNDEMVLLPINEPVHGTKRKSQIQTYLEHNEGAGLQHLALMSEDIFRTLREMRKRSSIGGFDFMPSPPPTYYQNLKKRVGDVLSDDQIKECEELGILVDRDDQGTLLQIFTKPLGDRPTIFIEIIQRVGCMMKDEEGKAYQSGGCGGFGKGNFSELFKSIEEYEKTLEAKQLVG
# Protocol: (§1) HPPD produces homogentisic acid and CO2 from 4-hydroxyphenylpyruvate (4-HPP) and O2. The activity assay for HPPD is based on the analysis of homogentisic acid by reversed phase HPLC.
# (§2) The assay mixture can contain 150 mM potassium phosphate buffer pH 7.0, 50 mM L-ascorbic acid, 100 μM Catalase (Sigma-Aldrich), 1 μM FeSO4 and 0.2 units of purified HPPD enzyme in a total volume of 505 μl. 1 unit is defined as the amount of enzyme that is required to produce 1 nmol of HGA per minute at 20° C.
# (§3) After a preincubation of 30 min the reaction is started by adding 4-HPP to a final concentration of 0.05 mM. The reaction is allowed to proceed for 45 min at room temperature. The reaction is stopped by the addition of 50 μl of 4.5 M phosphoric acid. The sample is filtered using a […] pore size PVDF filtration device.
# (§4) 5 μl of the cleared sample is analyzed on an UPLC HSS T3 column (particle size 1.8 μm, dimensions 2.1×50 mm; Waters) by isocratic elution using 90% 20 mM NaH2PO4 pH 2.2, 10% methanol (v/v).
# (§5) HGA is detected electrochemically at 750 mV (mode: DC; polarity: positive) and quantified by integrating peak areas (Empower software; Waters).
# (§6) Inhibitors are dissolved in DMSO (dimethylsulfoxide) to a concentration of 0.5 mM. From this stock solution serial five-fold dilutions are prepared in DMSO, which are used in the assay. The respective inhibitor solution accounts for 1% of the assay volume. […] Activities are normalized by setting the uninhibited enzyme activity to 100%. IC50 values are calculated using non-linear regression.
# (§7) Using methods which are described in the above examples or well known in the art, purified, recombinant wildtype HPPD enzymes are characterized with respect to their kinetic properties and sensitivity towards HPPD inhibiting herbicides. Apparent michaelis constants (Km) and maximal reaction velocities (Vmax) are calculated by non-linear regression with the software GraphPad Prism 5 (GraphPad Software, La Jolla, USA) using a substrate inhibition model. […] Weighted means (by standard error) of Km and IC50 values are calculated from at least three independent experiments.
# (§8) Field performance of the HPPD enzyme, which is used as a herbicide tolerance trait may depend not only on its lack of sensitivity towards HPPD inhibiting herbicides but also on its activity. To assess the potential performance of a herbicide tolerance trait a tolerance index (TI) is calculated using the following formula: […]
# (§9) Easy comparison and ranking of each trait is enabled by normalizing tolerance indexes on Arabidopsis wild-type HPPD.
# [2] = target: T2, Hordeum HPPD (SEQ ID NO:2) (Hordeum vulgare, UniProt O48604, A164G/R146V/R147D/R148G); experiment: HPPD activity assay (HGA by HPLC), wildtype enzyme; type: biochemical
# T2 construct: subcloned into a modified pET24D (Novagen) expression vector resulting in N-terminally His-tagged expression constructs; His tag (N); made in house; host or cells: E. coli BL21 (DE3)
# Protocol: as §1, §2, §3, §4, §5, §6, §7, §8, §9
# Synechoccus HPPD = experiment: HPPD activity assay, wildtype enzyme; type: biochemical, Synechococcus; details: Table 12, normalized to Arabidopsis HPPD
# Protocol: as §1, §2, §3, §4, §5
# (§10) Inhibitors are dissolved in DMSO (dimethylsulfoxide) to a concentration of 0.5 mM. From this stock solution serial five-fold dilutions are prepared in DMSO, which are used in the assay. […] IC50 values are calculated using non-linear regression. […]
# Kordia HPPD = experiment: HPPD activity assay, wildtype enzyme; type: biochemical; details: Table 12, normalized to Arabidopsis HPPD
# Protocol: as §1, §2, §3, §4, §5
# (§11) Inhibitors are dissolved in DMSO (dimethylsulfoxide) to a concentration of 0.5 mM. From this stock solution serial five-fold dilutions are prepared in DMSO, which are used in the assay. The respective inhibitor solution accounts for 1% of the assay volume. Thus, final inhibitor concentrations range from […], respectively. Activities are normalized by setting the uninhibited enzyme activity to 100%. IC50 values are calculated using non-linear regression.
# (§12) Using methods which are described in the above examples or well known in the art, purified, recombinant wildtype HPPD enzymes are characterized with respect to their kinetic properties and sensitivity towards HPPD inhibiting herbicides. Apparent michaelis constants (Km) and maximal reaction velocities (Vmax) are calculated by non-linear regression with the software GraphPad Prism 5 (GraphPad Software, La Jolla, USA) using a substrate inhibition model. Apparent kcat values are calculated from Vmax assuming 100% purity of the enzyme preparation. Weighted means (by standard error) of Km and IC50 values are calculated from at least three independent experiments. The Cheng-Prusoff equation for competitive inhibition (Cheng, Y. C.; Prusoff, W. H. Biochem Pharmacol 1973, 22, 3099-3108) is used to calculate dissociation constants (Ki).
# as §8
# Lolium HPPD = experiment: HPPD activity assay, wildtype enzyme; type: biochemical; details: Table 12, normalized to Arabidopsis HPPD
# Protocol: as §1, §2, §3, §4, §5, §11, §12, §8
# [3] = test system: Rhodococcus HPPD (Seq ID 46); experiment: HPPD activity assay, wildtype enzyme; type: biochemical; details: Table 12, normalized to Arabidopsis HPPD; Rhodococcus (Seq ID 46)
# Protocol: as §1, §2, §3, §4, §5, §11, §12, §8
# [4] = test system: Rhodococcus HPPD (Seq ID 44); experiment: HPPD activity assay, wildtype enzyme; type: biochemical; details: Table 12, normalized to Arabidopsis HPPD; Rhodococcus (Seq ID 44)
# Protocol: as §1, §2, §3, §4, §5, §11, §12, §8
# Chlamydomonas HPPD1a = experiment: HPPD activity assay, wildtype enzyme; type: biochemical, Chlamydomonas reinhardtii; details: Table 12, normalized to Arabidopsis HPPD
# Protocol: as §1, §2, §3, §4, §5, §10
# T2 sequence (O48604 whole entry R146V/R147D/R148G/A164G): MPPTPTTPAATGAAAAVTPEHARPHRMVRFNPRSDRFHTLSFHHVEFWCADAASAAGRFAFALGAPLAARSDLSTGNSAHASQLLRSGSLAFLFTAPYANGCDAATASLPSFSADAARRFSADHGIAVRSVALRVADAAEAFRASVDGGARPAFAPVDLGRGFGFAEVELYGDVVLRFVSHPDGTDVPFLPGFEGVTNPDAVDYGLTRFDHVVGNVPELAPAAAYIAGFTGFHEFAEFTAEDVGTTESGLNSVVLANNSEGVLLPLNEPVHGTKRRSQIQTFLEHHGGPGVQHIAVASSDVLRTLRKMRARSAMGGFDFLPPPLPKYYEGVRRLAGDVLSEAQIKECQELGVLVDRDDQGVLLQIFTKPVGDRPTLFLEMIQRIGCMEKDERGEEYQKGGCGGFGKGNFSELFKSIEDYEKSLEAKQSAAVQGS
smiles,measurement,setting,value
"Cc1nonc1NC(=O)c1ccc(S(C)(=O)=O)c(S(C)(=O)=O)c1C [Inhibitor 1, 2-methyl-N-(4-methyl-1,2,5-oxadiazol-3-yl)-3,4-bis(methylsulfonyl)benzamide]",Ki,[1],1.6 nM
same,Normalized tolerance index TI Inhibitor 1,"[1]; Table 12, normalized to Arabidopsis HPPD SEQ ID NO:53 (reference)",1
same,Normalized tolerance index TI Inhibitor 1,"[1]; Table 15, Arabidopsis HPPD Wildtype (reference)",1
same,TI (tolerance index),"[1]; not normalized, Table 11, Arabidopsis enzyme",1.6E−3
same,Ki,[2],5.6 nM
same,Normalized tolerance index TI Inhibitor 1,"[2]; Table 12, normalized to Arabidopsis HPPD, Hordeum",1.5
same,Normalized tolerance index TI Inhibitor 1,"[2]; Table 16, Hordeum HPPD Wildtype (reference)",1
same,TI (tolerance index),"[2]; not normalized, Table 11, Hordeum enzyme",2.5E−3
same,Normalized tolerance index TI Inhibitor 1,Synechoccus HPPD,69.9
same,Normalized tolerance index TI Inhibitor 1,Kordia HPPD,3.5
same,Normalized tolerance index TI Inhibitor 1,Lolium HPPD,1.7
same,Normalized tolerance index TI Inhibitor 1,[3],12.4
same,Normalized tolerance index TI Inhibitor 1,[4],183.5
same,Normalized tolerance index TI Inhibitor 1,Chlamydomonas HPPD1a,1.7
